Measurements as given in patent publication US20110275798A1, “Method for Determination of Sirolimus Stability and Process for Preparing Its Stable Form” (priority 2009, published 2011).

Assay: Stability (degradation) of sirolimus solid forms
Format: physicochemical

CO[C@H]1C[C@@H]2CC[C@@H](C)[C@@](O)(O2)C(=O)C(=O)N2CCCC[C@H]2C(=O)O[C@H]([C@H](C)C[C@@H]2CC[C@@H](O)[C@H](OC)C2)CC(=O)[C@H](C)/C=C(\C)[C@@H](O)[C@@H](OC)C(=O)[C@H](C)C[C@H](C)/C=C/C=C/C=C/1C [sirolimus]
stability (degradation) (amorphous form): degrades at a fast rate | stability (degradation) (crystalline form): substantially stable
